Here are results for 2 compounds from patent publication US20090062294A1, “HETEROARYL-SUBSTITUTED UREA MODULATORS OF FATTY ACID AMIDE HYDROLASE” (priority 2007, published 2009).

Assay [1] deals with T1, rat FAAH (Rattus norvegicus, UniProt P97612).
T1 sequence (P97612 1-579): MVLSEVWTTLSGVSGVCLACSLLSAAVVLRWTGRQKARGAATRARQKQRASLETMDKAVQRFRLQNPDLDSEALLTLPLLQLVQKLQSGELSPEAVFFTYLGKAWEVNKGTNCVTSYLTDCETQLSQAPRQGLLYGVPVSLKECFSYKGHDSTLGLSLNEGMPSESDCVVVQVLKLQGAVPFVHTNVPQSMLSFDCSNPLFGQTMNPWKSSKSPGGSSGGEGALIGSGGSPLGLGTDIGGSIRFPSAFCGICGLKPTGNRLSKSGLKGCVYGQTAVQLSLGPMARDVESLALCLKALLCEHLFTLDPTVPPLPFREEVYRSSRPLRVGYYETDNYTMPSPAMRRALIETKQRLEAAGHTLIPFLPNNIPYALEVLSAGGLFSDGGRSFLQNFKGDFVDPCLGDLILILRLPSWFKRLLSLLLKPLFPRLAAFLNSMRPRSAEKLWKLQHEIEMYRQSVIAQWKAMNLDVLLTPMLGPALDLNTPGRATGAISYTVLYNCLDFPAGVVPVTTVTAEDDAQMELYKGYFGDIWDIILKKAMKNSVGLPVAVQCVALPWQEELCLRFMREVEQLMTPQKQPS
Description: Assay Method 2: FAAH assay, 3H-anandamide hydrolysis in homogenate of SK-N-MC cells transfected with rat FAAH. In kind it is biochemical. Conditions: average of results, > = solubility limit or highest concentration tested. In a few lines:
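Read-out is scintillation counting of [3H]-ethanolamine passing through activated charcoal, after 1 h at rt with 80 nM final [3H]-AEA. Enzyme source: lysate of G418-selected SK-N-MC clones expressing rat FAAH, homogenized in Tris/EDTA/glycerol/0.02% Triton buffer, pH 9.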

The subject of assay [2] is mechanical (tactile) allodynia in the left hind paw. The experiment in a line: Assay Method 3: Rat Mild Thermal Injury Model (MTI), mechanical allodynia. The note with it: 10 mg/Kg p.o.; 0.5 h after administration; mean +/- S.E.M. In kind it is in vivo, Sprague-Dawley rats. The source says: Assay Method 3—Rat Mild Thermal Injury Model (MTI)
Pathogen-free, male albino Sprague-Dawley rats were purchased from Harlan Industries (San Diego, Calif.) and maintained on a 12-h light/dark cycle (lights on at 9:00 AM and off at 9:00 PM) in a climate-controlled room. Food and water were available ad libitum up to the time of the testing.
Under isoflurane/oxygen anesthesia, a first-degree burn injury (erythema without blistering) was produced as follows: the plantar surface of the rat's left hind paw was placed on water-dampened 56° C. hotplate for 20 seconds and steady contact was maintained by applying an 84 g weight to the dorsum (after Nozaki-Taguchi & Yaksh, Neurosci. Lett. 1998, 254, 25-28).
Mild thermal injury results in mechanical allodynia in the left hind paw. Mechanical (tactile) allodynia was assessed by determining the median threshold at which the affected paw was withdrawn from graded stimuli (von Frey filaments ranging from 0.41 to 15.8 g) applied perpendicularly with sufficient force to bend slightly and held for 2-3 seconds against the proximal half of the third and fourth toe surfaces through wire-mesh observation cages. Paw flinching during or immediately following the removal of the stimulus was considered a positive response. A paw withdrawal threshold (PWT) was determined by sequentially increasing and decreasing the stimulus strength and analyzing withdrawal data using an adaptation of the Dixon up-down method, as described (Chaplan et al., J. Neurosci. 1994, 53, 55-63). Rats were included in the study only if their baseline PWT was 3.1623 g or lower (4.5 logarithmically).
Rats were tested for pre-injury thresholds prior to mild thermal injury and again for baseline thresholds after development of mechanical allodynia. Immediately after baseline measurement, test compound or vehicle was administered orally and the measurement was repeated at 0.5 h after administration. The tactile thresholds (log value) were converted to percent of a maximum possible effect ( %MPE): % MPE=[Threshold(t)−Threshold(baseline)]*100/[Threshold(pre)−Threshold(baseline)], where t=post-treatment time. Data were expressed as mean±standard error of the mean (S.E.M.). Statistical analysis was performed using two-way ANOVA with repeated measures with a significance level of p<0.05.
Results for compounds tested in this assay are presented in Table 2, as an average of results obtained. Compounds were tested in free base, hydrochloride salt, and/or trifluoroacetic acid salt forms.

Turning to `O=C(Nc1noc2ccccc12)N1CCN(Cc2cccc(Oc3ccc(C(F)(F)F)cc3)c2)CC1` [Example 109, N-1,2-Benzisoxazol-3-yl-4-{3-[4-(trifluoromethyl)phenoxy]benzyl}-piperazine-1-carboxamide], 4 nM corresponded to half-maximal inhibition in assay [1] (IC50). In addition, in assay [2], the “% MPE” value is reported as 0%.
On the same counts, the results for `O=C(Nc1noc2cc(F)ccc12)N1CCN(Cc2cccc(Oc3ccc(Cl)cc3)c2)CC1` [Example 245, 4-[3-(4-Chloro-phenoxy)-benzyl]-piperazine-1-carboxylic acid (6-fluoro-benzo[d]isoxazol-3-yl)-amide] are 15 nM and 36 +/− 10%.

The term IC50 denotes the midpoint of a concentration-inhibition curve.
